Measurements: paper PMC7065950 (Nature biotechnology, 2020)

Tests used:
Format in all cases: in vivo, C57BL/6 mice
B16-F10 tumor cells = assay: B16-F10 therapeutic tumor model; settings: B16-F10 SC implanted
[1] = test system: antigen-specific CD8 T cells; assay: CD8 T cell response by intracellular cytokine staining of blood; settings: LP delivered as SNP-7/8a; × = immunogenic; listed as M07
[2] = test system: antigen-specific CD4 T cells; assay: CD4 T cell response by intracellular cytokine staining of blood; settings: LP delivered as SNP-7/8a; × = immunogenic

Sequence	Tumor control, neoantigen as SNP-7/8a by IV route (B16-F10 tumor cells; with anti-PD-L1 IP)	CD8 response, present study, SNP-7/8a [1]	CD4 response, present study, SNP-7/8a [2]	Tumor control, neoantigen as LP + polyIC by SC route (B16-F10 tumor cells; days 1, 8 and 15 with anti-PD-L1 IP)
TAKSVMCTYSPPLDKLFCQLAKTCPVQ [Compound B16-M07]	improved control of tumor growth	induced a CD8 T cell response	no significant CD4 T cell response	–
ELINFKRKRVAAFQKNLIEMSELEIKH [Compound B16-M39]	–	–	–	no efficacy observed
